Test results from patent publication US20080269163A1, “Methods and Compositions for Protecting Cells from Ultrasound-Mediated Cytolysis” (priority 2004, published 2008).
Entries after “also recorded” stand apart in the source; their conditions may differ.

Assays:
HL-60 cells [1] = experiment: Ultrasound-induced cytolysis of HL-60 cells, Coulter counter analysis; assay type: cell-based; settings: for concentration giving complete (approximately 100%) protection from ultrasound induced cytolysis / effect on ultrasound induced cytolysis (% cytolysis): 1.057 MHz (1 MHz), 10 W; for concentration giving complete (approximately 100%) protection from ultrasound induced cytolysis / effect on ultrasound induced cytolysis (% cytolysis) / effect on ultrasound induced cytolysis: 5 s; for concentration giving complete (approximately 100%) protection from ultrasound induced cytolysis: air exposed; for cells protected from immediate cytolysis: 7 mM HGP; for change of protection from cytolysis as frequency is decreased: frequency decreased from 1 MHz to 42 kHz
Protocol: Cells: HL-60 myeloid leukemia cells (American Type Culture Collection) were grown in a suspension of RPMI 1640 medium (GIBCO, Gaithersburg, Md.) containing 10% calf serum. The population of HL-60 cells doubled every 23±1 hr (hour ±SEM) when incubated at 37° C. in a CO2 (5%) containing atmosphere. Cells were harvested, re-suspended in fresh RPMI medium and kept at 25° C. until the start of the experiment (typically less than 1 hr). […] The fraction of intact cells before and after ultrasound was determined using a Coulter multisizer (model IIe) connected to a sampling stand (model IIa). The number of intact cells was determined by counting the total number of particles under the bell shaped curve (e.g., FIG. 1a) before and following sonolysis. The cytolysis percentage was determined by subtracting the number of intact cells following sonolysis from the number of intact cells before sonolysis. This value was divided by the number of intact cells before sonolysis and multiplied by 100 to obtain the cytolysis percentage value.
The temperature of the coupling water was 25° C.
We have confirmed the validity of this technique for studying the effects of sonolysis in our ultrasound system by the trypan blue exclusion assay. The mean size of HL-60 cells was determined from the Coulter counter results prior to sonolysis and was approximately 650 μm3 (FIG. 1a) which equates to a mean cell diameter of […].
42 kHz sonolysis was conducted in a similar way but using a Branson ultrasound bath (model number 1510). […] At 42 kHz, a transducer was used to decrease the power of the bath to 50% of its original value. The temperature of the coupling water at all frequencies was 25° C.
(§1) The percentage of cytolysis of HL-60 cells was determined by measurement of the cell size distribution using a Coulter multisizer. This method correlates well with percentage cytolysis measured using the Trypan blue exclusion assay immediately following sonolysis and is explained in detail elsewhere (Miyoshi, N. et al. 2003). […] This immediate ultrasound induced cytolysis (i.e., % cytolysis) is represented in FIGS. 2, 10-12 at a concentration of zero.
42 kHz sonolysis was conducted in a similar way but using a Branson ultrasound bath (model number […]). […] At 42 kHz, a transducer was used to decrease the power of the bath to 50% of its original value. The temperature of the coupling water at all frequencies was 25° C.
as §1, with “represented” for “represented in FIGS. 2, 10-12”

HL-60 cells [2] = system: HL-60 cells
Protocol: (§2) Cell experiments were completed within 5 to 10 minutes of adding the glucopyranosides to the cell suspensions, and each data point represents an average ±SEM, where n=5 to 8. […] For this reason, we only studied the effects of MGP, HGP, HepGP and OGP on the ultrasound induced cytolysis of HL-60 cells.

HL-60 cells [3] = experiment: Exposure of HL-60 cells to glucopyranosides alone (no ultrasound); settings: 15 minute exposure at highest concentrations used
Protocol: as §2

HL-60 cells [4] = experiment: Mechanical fragility test (Burrell wrist action shaker, glass beads), HL-60 cells; assay type: cell-based; settings: for protection from mechanical induced cytolysis: 30 min shaking, 50% power, HGP 1-10 mM, HepGP 0.1-10 mM, MGP 10-30 mM, OGP 0.3-3 mM
Protocol: 10 ml borosilicate glass beads in a 125 ml conical flask. 10 ml cell suspension in the presence and absence (control) of various glucopyranosides (HGP, HepGP, MGP, and OGP) in a cell culture medium containing 10% DPBS solution. Shaking was conducted over a period of 30 minutes. Each data point represents ±SD, where n=5.
Mechanical Fragility Test: the effect of glucopyranosides on the mechanical fragility of the cells was determined by inducing mechanical shear stress to a cell suspension. This involved placing 10 mL of HL-60 cells in suspension in 125 ml sized screw capped conical flasks containing 10 mL of borosilicate solid-glass beads (Sigma-Aldrich, mean particle diameter of 3 mm), similar to the methods described elsewhere (Carstensen, E. L. et al. 1993; Miller, M. W. et al. 2003). The samples were then shaken in a Burrell wrist action shaker (model number 75, Burrell Scientific, Pittsburgh, Pa.) at 50% power for a duration of 30 minutes. Using this method, up to eight sample solutions could be run at one time. […] In samples containing glucopyranosides, the surfactant was dissolved in 1 ml of DPBS and added to 9 ml of the cell suspension.

HL-60 cells [5] = experiment: Reproduction assay of HL-60 cells following sonolysis; assay type: cell-based; settings: for reproduction ratio one or two days post treatment: 7 mM HGP; for reproductive viability (reproduction fraction) over 24 hours after sonolysis: 5 seconds, 10 W, varying concentrations
Protocol: Cells were allowed to reproduce for 24 hours. Reproduction fraction ±SD (where n=6 to 8) is calculated by dividing the number of cells counted following 24 hours of reproduction by the number of cells counted at the start of incubation.
Control data points were run in triplicate with a standard deviation of less than 10%. Sonolysis points represent an average of six separate cell suspensions, with a standard deviation of less than 10%.
The reproduction ratio is the number of cells present one or two days post treatment divided by the number of cells present on the treatment day.
Reproduction Assay: for FIG. 5, a reproduction assay was conducted over a period of 10 days to determine the long term viability of cells following ultrasound treatment in the presence of either HGP or OGP at concentrations where 100% protection from cytolysis occurred. The long term viability of treated cell suspensions was compared to the long term viability of untreated control cell suspensions held under exactly the same conditions (FIG. 5). Immediately following sonolysis, a 100 μl aliquot of the 1 ml treated (or control) samples was used for Coulter counter analysis in order to confirm that 100% of the cells had survived the ultrasound treatment. Viability of the cells was determined by using a very small volume (approx. 20 μl) of suspension for trypan blue staining. The remaining ≈0.9 ml cell suspensions were diluted to 3 ml with fresh medium, centrifuged, washed with fresh medium, and finally re-suspended in fresh medium (2 ml). 100 μl of this new 2 ml of cells suspended in fresh medium was then used to determine the cell concentration. This cell concentration is defined as ‘the cell concentration at Day 0 after ultrasound treatment’ (Ci). Cell suspensions were then kept at 37° C. in a 5% CO2 incubator for a total of 10 days.
Over the 10 day period, cells had to be spun down occasionally and re-suspended in fresh medium to replenish the nutrients necessary for a healthy cell population. 100 μl aliquots of the original cell suspension were used to measure the cell concentration both before (Cfinal) and following (Cinitial) re-suspension in fresh medium. This procedure, although necessary, results in a slight underestimation in the expected number of cells on any given day, when compared to the original cell concentration, Ci. To account for this small, but significant underestimation, we calculated the actual number of cells that would have been observed had we not been periodically extracting small aliquots for the detection of cell numbers by the Coulter counter. This was done by calculating a ‘reproduction ratio’, determined by dividing Cfinal by Cinitial that was measured one or two days earlier and comparing this ratio to (Ci), to give a ‘real cell population’. It should be noted that this calculation is done simply as a matter of convenience and that the reproduction ability of the treated samples was compared to control samples that were treated in the same way over the day period, as shown in FIG. 5. Verification of this method is given by the fact that the cells of the control samples double approximately every day (FIG. 5), as expected for HL-60 cells under the conditions of incubation in the current study.

HL-525 cells = experiment: Sonolysis of HL-525 cells, % cytolysis; assay type: cell-based; settings: 1 MHz (1057 kHz), 10 W, 5 sec
Protocol: Conditions: 42 kHz, 50% power, 5 sec, 20° C., % cytolysis ±SD (n=6).
Conditions: 354 kHz, 15 W, 5 sec, 20° C., % cytolysis ±SD (n=6).
Conditions: 614 kHz, 20 W, 5 sec, 20° C., % cytolysis ±SD (n=6).
Conditions: 1057 kHz, 10 W, 5 sec, 20° C., % cytolysis ±SD (n=6).

CCCCCCCNC(=O)OC[C@H]1O[C@H](OC)[C@H](O)[C@@H](O)[C@@H]1O [ANAMEG-7, methyl-6-O—(N-heptylcarbamoyl)-α-D-glucopyranoside]
concentration giving complete (approximately 100%) protection from ultrasound induced cytolysis (HL-60 cells [1]; HL-60 cells): 3 mM

OC[C@H]1O[C@@H](OCCCC2CCCCC2)[C@H](O)[C@@H](O)[C@@H]1O [Cyglu-3, 3-cyclohexyl-1-propyl-β-D-glucoside]
concentration giving complete (approximately 100%) protection from ultrasound induced cytolysis (HL-60 cells [1]; HL-60 cells): 5 mM

CCCCCCCCCCO[C@@H]1O[C@H](CO)[C@@H](O)[C@H](O)[C@H]1O [DGP, decyl-β-D-Glucopyranoside]
lysis of cells on exposure (Coulter counter, trypan blue) (HL-60 cells [2]): immediate lysis of a large population of cells

CCCCCCO[C@@H]1O[C@H](CO)[C@@H](O)[C@H](O)[C@H]1O [HGP, hexyl-β-D-Glucopyranoside]
cells protected from immediate cytolysis (HL-60 cells [1]; 354 kHz): 100%
cells protected from immediate cytolysis (HL-60 cells [1]; 614 kHz): 100%
ultrasound induced cytolysis (HL-60 cells [1]; HGP 5 mM, 1.057 MHz, 15 seconds, 30 W): eliminated
protection from sonolysis under a range of ultrasound intensities and exposure times (HL-60 cells [1]; HGP 5 mM, 1.057 MHz, extreme conditions with almost 100% cytolysis without HGP): could protect cells from cytolysis even during extreme conditions of sonolysis
effect on ultrasound induced cytolysis (% cytolysis) (HL-60 cells [1]; HL-60 cells): fully protects
effect on ultrasound induced cytolysis (HL-60 cells [1]; HL-60 cells, 42 kHz, 50% power): very small sonosensitization; also recorded: not at 42 kHz
effect on ultrasound induced cytolysis (HL-60 cells [1]; HL-60 cells, 354 kHz, 15 W): fully protects
effect on ultrasound induced cytolysis (HL-60 cells [1]; HL-60 cells, 614 kHz, 20 W): fully protects
change of protection from cytolysis as frequency is decreased (HL-60 cells [1]; HL-60 cells): less effective
effect on reproduction rate of the cells over 120 hours (HL-60 cells [3]): no detrimental effect
protection from mechanical induced cytolysis (HL-60 cells [4]): none of the glucopyranosides tested
reproduction ratio one or two days post treatment (HL-60 cells [5]; 354 kHz): continue to reproduce at the same rate
reproduction ratio one or two days post treatment (HL-60 cells [5]; 614 kHz): continue to reproduce at the same rate
reproduction of treated cells over 10 days (HL-60 cells [5]; HGP 5 mM, 1.057 MHz, 15 seconds, 40 W and 60 W): continue to reproduce at a rate comparable to that of untreated control cells
reproductive viability (reproduction fraction) over 24 hours after sonolysis (HL-60 cells [5]): continue to reproduce at the same rate as untreated control samples

CCCCCCO[C@@H]1O[C@H](CO)[C@@H](O[C@H]2O[C@H](CO)[C@@H](O)[C@H](O)[C@H]2O)[C@H](O)[C@H]1O [HMP, Hexyl-β-D maltopyranoside]
concentration giving complete (approximately 100%) protection from ultrasound induced cytolysis (HL-60 cells [1]; HL-60 cells): 1 mM

CCCCCCCO[C@@H]1O[C@H](CO)[C@@H](O)[C@H](O)[C@H]1O [HepGP, heptyl-β-D-Glucopyranoside]
effect on ultrasound induced cytolysis (% cytolysis) (HL-60 cells [1]; HL-60 cells): fully protects
concentration giving complete (approximately 100%) protection from ultrasound induced cytolysis (HL-60 cells [1]; HL-60 cells): 3 mM
effect on ultrasound induced cytolysis (HL-60 cells [1]; HL-60 cells, 42 kHz, 50% power): very small sonosensitization
effect on ultrasound induced cytolysis (HL-60 cells [1]; HL-60 cells, 614 kHz, 20 W): fully protects
change of protection from cytolysis as frequency is decreased (HL-60 cells [1]; HL-60 cells): less effective
effect on reproduction rate of the cells over 120 hours (HL-60 cells [3]): no detrimental effect
protection from mechanical induced cytolysis (HL-60 cells [4]): none of the glucopyranosides tested
effect on cell membrane stability to mechanical shear stress (HL-60 cells [4]; relatively high concentrations): significant destabilization of the cell membrane to mechanical shear stress
reproductive viability (reproduction fraction) over 24 hours after sonolysis (HL-60 cells [5]): continue to reproduce at the same rate as untreated control samples

CO[C@@H]1O[C@H](CO)[C@@H](O)[C@H](O)[C@H]1O [MGP, Methyl-β-D-Glucopyranoside, reference compound]
protective effect for HL-525 cells compared to HL-60 cells (HL-525 cells): different protection effects
effect on ultrasound induced cytolysis (% cytolysis) (HL-60 cells [1]; HL-60 cells): no effect
effect on ultrasound induced cytolysis at any ultrasound frequency (HL-60 cells [1]; HL-60 cells, 42 kHz to 1 MHz, MGP 10 to 30 mM): effectively has no effect
effect on reproduction rate of the cells over 120 hours (HL-60 cells [3]): no detrimental effect
protection from mechanical induced cytolysis (HL-60 cells [4]): none of the glucopyranosides tested

CCCCCCCCO[C@H]1O[C@H](CO)[C@@H](O)[C@H](O)[C@H]1O [alphaOGP, n-octyl-α-D-glucopyranoside]
effect on ultrasound induced cytolysis (% cytolysis) (HL-60 cells [1]; HL-60 cells): very slight protective effect
